In PubChem BioAssay (NCI):
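Cultured in 96-well plates, cells were exposed to test compound for 48 hours across five concentrations. GI50: concentration for 50% inhibition of growth. TGI is the concentration that stops growth completely.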

Key:
Experiment in all cases: NCI-60 cell line screen, 48 h
HOP-62 NSCLC = system: HOP-62 NSCLC
T-47D breast = system: T-47D breast
OVCAR-5 ovarian = system: OVCAR-5 ovarian
MALME-3M melanoma = system: MALME-3M melanoma
UO-31 renal = system: UO-31 renal
NCI-H460 lung = system: NCI-H460 lung
M14 melanoma = system: M14 melanoma
EKVX NSCLC = system: EKVX NSCLC
SF-295 CNS = system: SF-295 CNS
HS 578T breast = system: HS 578T breast

Compound | GI50 (HOP-62 NSCLC) | TGI (HOP-62 NSCLC) | GI50 (T-47D breast) | TGI (T-47D breast) | GI50 (OVCAR-5 ovarian) | TGI (OVCAR-5 ovarian) | GI50 (MALME-3M melanoma) | TGI (MALME-3M melanoma) | GI50 (UO-31 renal) | TGI (UO-31 renal) | GI50 (NCI-H460 lung) | TGI (NCI-H460 lung) | GI50 (M14 melanoma) | TGI (M14 melanoma) | GI50 (EKVX NSCLC) | TGI (EKVX NSCLC) | GI50 (SF-295 CNS) | TGI (SF-295 CNS) | GI50 (HS 578T breast) | TGI (HS 578T breast)
O=C(COc1cccc(/C=C2\CSc3ccccc3C2=O)c1)Nc1nccs1 | 11 µM | 23.2 µM | 5.33 µM | 23.9 µM | 3.08 µM | 15.5 µM | 1.54 µM | 3.11 µM | 1.29 µM | 2.64 µM | 10 µM | 25.5 µM | 1.88 µM | 4.06 µM | 7.21 µM | 20.5 µM | 2.09 µM | 3.59 µM | 2.79 µM | 12.5 µM
Cc1cc(N2CCN(C)CC2)n2nc(-c3ccc(Cl)cc3)nc2n1 |  | > 100 µM |  | > 100 µM |  | > 100 µM |  | > 100 µM |  |  |  | > 100 µM |  | > 100 µM |  | > 100 µM |  | > 100 µM |  | > 100 µM
COc1nnc2ccc(N3CCC(c4ccc(OCCN5CCN(C)C(=O)[C@H]5C)cc4)CC3)nn12 | 0.0875 µM | > 100 µM | 0.0618 µM | > 69.2 µM | 0.492 µM | > 100 µM | 0.431 µM | > 100 µM | 0.0396 µM | > 100 µM | 0.373 µM | > 100 µM | 0.0934 µM | > 100 µM | 0.239 µM | > 100 µM | 0.206 µM | > 100 µM | 0.0419 µM | > 62.7 µM
CN(CC(=O)N(Cc1ccc(C2CCCCC2)cc1)c1ccc(C(=O)O)cc1)S(=O)(=O)c1c(F)c(F)c(F)c(F)c1F | 2.09 µM | 4.59 µM | 2.09 µM | 4.83 µM | 10.8 µM | 23.8 µM | 1.7 µM | 3.64 µM | 1.91 µM | 4.73 µM | 3.33 µM | 10.4 µM | 1.91 µM | 3.59 µM | 1.63 µM | 3.58 µM | 15.2 µM | 29.4 µM | 2.47 µM | 6.04 µM
CN(C)C(=S)SCC(=O)Nc1ccccc1 |  | > 100 µM |  | > 100 µM |  | > 100 µM |  | > 100 µM |  | > 100 µM |  | > 100 µM |  | > 100 µM |  | > 100 µM |  | > 100 µM |  | > 100 µM
CC[n+]1c(/C=C/C=C2\N(C)c3ccccc3C2(C)C)sc2ccccc21 | 4.47 µM | 9.31 µM | 4.65 µM | 11.8 µM | 4.82 µM | 11.7 µM | 4.28 µM | 8.1 µM | 3.55 µM | 7.26 µM | 4.5 µM | 8.93 µM | 4.03 µM | 8.33 µM | 4.39 µM | 12.8 µM | 3.88 µM | 7.55 µM | 5.63 µM | 20.1 µM
CCOC(=O)COc1ccc2c(C)cc(=O)oc2c1 |  | > 100 µM |  | > 100 µM |  | > 100 µM |  | > 100 µM |  | > 100 µM |  | > 100 µM |  | > 100 µM |  | > 100 µM |  | > 100 µM |  | > 100 µM
